Source: article PMC4336141, “Repurposing Auranofin as a Lead Candidate for Treatment of Lymphatic Filariasis and Onchocerciasis” (PLoS Neglected Tropical Diseases, 2015)

System: B. pahangi
Test: Worm retrieval from B. pahangi infected gerbils treated orally
Type: in vivo, Mongolian gerbils (Meriones unguiculatus)
Details: for reduction in worm burden: 48 doses over 28 days, vs vehicle
Protocol: Animal studies were performed under IACUC approval #AN085723–02 to test the efficacy of auranofin in vivo. Male Mongolian gerbils (Meriones unguiculatus, Charles River Laboratories International, Inc., Wilmington, MA) were injected intraperitoneally (IP) with 300 B. pahangi L3 (Filariatech, Inc., Athens, GA) and treated 3 months post-infection. Auranofin was dissolved in 100% ethanol at 4 mg/mL and mixed 1:1 with PBS. Vehicle doses consisted of the same mixture of ethanol and PBS but without auranofin. Doses (up to 200 μl) were given to gerbils orally at 5 mg/kg body weight, BID weekdays and SID weekends for a total of 48 doses over 4 weeks.
Two studies (Study 1 and Study 2) were conducted using the same protocols and the same dosing schedule except that in Study 1, two gerbils from the auranofin treatment group and two gerbils from the vehicle group were treated for 14 days and were necropsied 2 hours after their last dose (interim necropsy) to determine plasma gold levels (from auranofin). The remaining gerbils in Study 1 were treated for 28 days and were necropsied 11, 14, or 16 days after the end of dosing. In Study 2, all gerbils were treated for 28 days and were necropsied 16 days after the end of dosing. For both of these in vivo studies, worms were collected from the gerbil’s peritoneal cavity, counted, sexed and examined under a dissecting microscope. For each study a two-tailed Student’s T-test assuming equal variance was conducted using Microsoft Excel to determine the statistical significance of the difference in mean worm retrieval between the auranofin treated and vehicle treated groups. Gerbil blood was collected by cardiac puncture and plasma was sent to NMS Labs, Willow Grove, PA to determine plasma gold levels (elemental gold analysis) by graphite furnace atomic absorption spectroscopy.

[1] = Study 1 interim necropsy, 14 days of treatment

CC[PH](CC)(CC)[Au][S][C@@H]1O[C@H](COC(C)=O)[C@@H](OC(C)=O)[C@H](OC(C)=O)[C@H]1OC(C)=O [auranofin, 2,3,4,6-tetra-O-acetyl-1-thio-beta-D-glucopyranosato-S (triethylphosphine) gold]
reduction in worm burden (Study 1, 5 mg/kg oral, not statistically significant (p > 0.05)): 58% | average number of worms (Study 1, all treated animals (n = 9), vehicle 9.4): 4.0 worms | female worms [1]: 7 | male worms [1]: 4 | total number of worms (Study 1 interim necropsy, 14 days of treatment, two gerbils, vehicle 43): 11 | male worms recovered (Study 2): 11 | reduction in worm burden (Study 2, 5 mg/kg oral, necropsy 16 days after end of dosing, p = 0.01): 91% | female worms recovered (Study 2, remaining female encapsulated with host tissue): 1 | mean worms per gerbil (Study 2, vehicle 32): 3 worms per gerbil | total worms recovered (Study 2, vehicle 161): 12
